This is an account of results in patent publication US4153686A, “Process for the preparation of glucoproteins as well as the use thereof” (priority 1976, dated 1979).

In brackets after ≈: the same amount, converted by molar mass. Several values for one entry are separate records, joined by “and”; a condition that tells them apart may be missing. Equal entries are not always repeated. Where two headings read alike, the source gives them in different places.

The test system of assay [1] is strept. faecalis ATCC 19433. The assay can be described thus: Bactericidal activity in vitro, cylinder test (Table 1). It is filed as cell-based. To be noted: Enterococcus faecalis, ATCC19433; 18 h at 37° C., average of three individual measurements; read-out: Bactericidal action (MIC).
The test system of assay [2] is aerobacter aeroges. The assay can be described thus: Bactericidal MIC-values, 50 strains (Table 2). It is filed as cell-based. To be noted: of 50 strains; MIC steps 2000 to 0.0002 γ/ml, counts in descending MIC order.
The subject of assay [3] is h. influencae ATCC 19418. Kind of assay: Bactericidal activity in vitro, cylinder test (Table 1). It is filed as cell-based. To be noted: 18 h at 37° C., average of three individual measurements; read-out: Bactericidal action (MIC).
The subject of assay [4] is strept. pneumon. ATCC 6302. The description is as above. It is filed as cell-based. To be noted: 18 h at 37° C., average of three individual measurements; read-out: Bactericidal action (MIC).
Assay [5] relates to stapyloc. aur. ATCC 11522. The description is as above. Format: cell-based. To be noted: 18 h at 37° C., average of three individual measurements; read-out: Bactericidal action (MIC).
For assay [6], the system named is escherichia coli NCTC 10418. Described as above. It is filed as cell-based. To be noted: NCTC10418, 18 h at 37° C., average of three individual measurements, read-out: Bactericidal action (MIC).
Assay [7] relates to strains which form Penicillinase. Kind of assay: Bactericidal activity against penicillinase-forming strains (statement). It is filed as cell-based. To be noted: ampicillin alone.
For assay [8], the system named is stapyloc. aur. ATCC 6538 P (Penicillinase forming substance). Kind of assay: Bactericidal activity in vitro, cylinder test (Table 1). Format: cell-based. Conditions: 18 h at 37° C., average of three individual measurements.
Assay [9] concerns staphyl. aur. b, Penicillinase-forming substance. Kind of assay: Bactericidal MIC-values, 50 strains (Table 2). Format: cell-based. Conditions: of 50 strains; MIC steps 2000 to 0.0002 γ/ml, counts in descending MIC order.
The test system of assay [10] is staphyloc. aur. NCTC 6571. The assay can be described thus: Bactericidal activity in vitro, cylinder test (Table 1). Format: cell-based. Conditions: 18 h at 37° C., average of three individual measurements; read-out: Bactericidal action (MIC).
Assay [11] has as its system psuedomonas aeruginosa. The assay can be described thus: Bactericidal MIC-values, 50 strains (Table 2). Conditions: of 50 strains; MIC steps 2000 to 0.0002 γ/ml, counts in descending MIC order. It is filed as cell-based.
For assay [12], the system named is strept. faecalis ATCC 8043. Kind of assay: Bactericidal activity in vitro, cylinder test (Table 1). It is filed as cell-based. To be noted: Enterococcus faecalis, ATCC8043; 18 h at 37° C., average of three individual measurements; read-out: Bactericidal action (MIC).
In assay [13] the test system is strept. faecalis ATCC 10541. The description is as above. Format: cell-based. To be noted: Enterococcus faecalis, ATCC10541; 18 h at 37° C., average of three individual measurements; read-out: Bactericidal action (MIC).
Assay [14] has as its system fungi. Kind of assay: Fungicidal activity (statement). Format: cell-based. Conditions: ampicillin alone. The procedure:
The MIC-values for the fungicidal activity of the combination product were determined according to the provisions of the American Soc. of Clinical Microbiology, Manual of Clinical Microbiology, 2nd Edition (Washington, D.C.).

Assay [15] deals with ps. aeruginosa NCTC 10662. Kind of assay: Bactericidal activity in vitro, cylinder test (Table 1). Format: cell-based. To be noted: Pseudomonas aeruginosa, NCTC10662; 18 h at 37° C., average of three individual measurements; read-out: Bactericidal action (MIC).
The subject of assay [16] is strept. pneumon. ATCC 6301. The assay is described as above. Format: cell-based. To be noted: 18 h at 37° C., average of three individual measurements; read-out: Bactericidal action (MIC).
For assay [17], the system named is proteus mirabilis b, Penicillinase-forming substance. Kind of assay: Bactericidal MIC-values, 50 strains (Table 2). Format: cell-based. To be noted: of 50 strains; MIC steps 2000 to 0.0002 γ/ml, counts in descending MIC order.
Assay [18] has as its system strept. pyogenes ATCC 8668. Kind of assay: Bactericidal activity in vitro, cylinder test (Table 1). Format: cell-based. Conditions: Streptococcus pyogenes, ATCC8668; 18 h at 37° C., average of three individual measurements; read-out: Bactericidal action (MIC).
For assay [19] the following is noted: 0.5 mg Dexam 3 × daily perorally, after 5 days.
Assay [20] in a line: Clinical test of phenylbutazone and phenylbutazone + glucoprotein, BSG (Table 5). It is filed as in vivo, patients. Conditions: 1.0 g phenylbutazone 3 × daily orally, after 8 days.
Assay [21] is described as follows: Clinical test of Norfenefrin and Norfenefrin + glucoprotein, blood pressure (Table 6). It is filed as in vivo, patients. To be noted: 14th day, 3.0 mg Norfenefrin once daily.
[22] abbreviates: three hours after medication, individual patient.

In the case of `CC1(C)S[C@@H]2[C@H](NC(=O)[C@H](N)c3ccccc3)C(=O)N2[C@H]1C(=O)O` [Ampicillin, D-(2-amino-2-phenylacetamido)-3,3-dimethyl-7-oxo-4-thia-1-azabicyclo-[3,2,0]-heptane-2-carboxylic acid], the MIC (in general, the smallest concentration in the dilution series that meets the test's criterion for growth inhibition) in [1] was 2 µg/mL (≈ 5.72 µM); in assay [3] it was 0.25 µg/mL (≈ 0.715 µM); in [4], 0.06 µg/mL (≈ 0.172 µM); in assay [5], 0.06 µg/mL (≈ 0.172 µM); in assay [6], 8 µg/mL (≈ 22.9 µM); in assay [10], 0.06 µg/mL (≈ 0.172 µM). The minimal inhibitory concentration (MIC) in [12] was 2 µg/mL (≈ 5.72 µM); in assay [13], 1 µg/mL (≈ 2.86 µM); in assay [15] it was 240 µg/mL (≈ 687 µM); in [16], 0.06 µg/mL (≈ 0.172 µM); in [18], 0.03 µg/mL (≈ 0.0859 µM). For the same compound, the “Bactericidal MIC-values: number of strains at each MIC step” value in assay [2], in assay [9], in assay [11] and in assay [17] was 50 in each case. In assay [7], the “action against Penicillinase-forming strains” value is on record as “completely ineffective”. In addition, the “Bactericidal action (MIC)” value in assay [8] is reported as “resistant”. Also, the fungicidal activity result in assay [14] is on record as “no fungicidal activity which can be evaluated in practice”.

On to `C[C@@H]1C[C@H]2[C@@H]3CCC4=CC(=O)C=C[C@]4(C)[C@@]3(F)[C@@H](O)C[C@]2(C)[C@@]1(O)C(=O)CO` [Dexam, dexamethasone], for which, in assay [19] (average of 10 patients), the “ASLO, average” value came to 220 i.E; the “BSG after 1 h., average” value amounted to 23.5; the “BSG after 2 h., average” value is listed as 38.8. In addition, in assay [19] (individual patient), the ASLO is 200 i.E. and 100 i.E. and 300 i.E; the “BSG after 1 h.” value was 25 and 20 and 30 and 24 and 22; the “BSG after 2 h.” value is 30 and 35 and 40 and 45 and 50 and 42 and 38 and 36 and 34.

With `CCCCC1C(=O)N(c2ccccc2)N(c2ccccc2)C1=O` [phenylbutazone], in [20] (average of 10 patients), the “BSG after 1 h., average” value is reported as 33.2 and the “BSG after 2 h., average” value came to 57.9. Also, in [20] (individual patient), the “BSG after 1 h.” value is 38 and 40 and 35 and 30 and 28 and 32 and 25; the “BSG after 2 h.” value is 62 and 60 and 50 and 45 and 58.

In the case of `NCC(O)c1cccc(O)c1` (centres unmarked) [Norfenefrin], in assay [21] (setting [22]), the diastolic blood pressure is 70 and 75 and 80; the systolic blood pressure is 120 and 125 and 130. Further, in assay [21] (average of 10 patients), the “diastolic blood pressure, average” value is given as 76.5 and the “systolic blood pressure, average” value is on record as 126.0.
